Values after ≈ are worked out from the molar mass of the structure shown. Like-named read-outs stand apart in the source and are kept apart here.
Tests used:
Format in all cases: cell-based
Fusarium solani FS2 = assay: 24 hr Fusarium solani MIC (RPMI medium, FS2); settings: banded into grades
Protocol: Between 1 and 5 mgs of compound were accurately weighed out into a sterile Eppendorf tube. The compound was dissolved in DMSO to give a solution containing 5 mg/mL. Tubes were stored at −20° C. until required.
On the day of testing thawed solutions were vortex mixed to ensure homogeneity. 30 μL of solution was removed and added to 570 μL of sterile water in a separate sterile Eppendorf The thoroughly mixed solution was used to prepare a series of doubling dilutions in water, in a deep well plate. […] replicate plates were prepared using a Minitrak by aspirating 20 μL from each well into eleven clear polystyrene 96 well plates.
Spores of Aspergillus spp. (Aspergillus fumigatus [two strains], Aspergillus terreus [two strains], Aspergillus niger and Aspergillus flavus) were harvested from cultures grown on Sabarauds agar for 5 days, and resuspended in PBS/Tween 80 to approx 1×10^7 cfu/mL. Other filamentous fungi (Absidia corymbifera, Fusarium solani, Rhizomucor, Scedosporium spp., Trichophyton spp.), were grown on Sabarauds agar for 2-10 days and spores/hyphae resuspended in PBS/Tween to give approx 1×10^7 cfu/mL. Candida species (Candida albicans, Candida glabrata, Candida krusei, Candida parapsilosis and Candida tropicalis) were grown on Sabarauds agar, cells were harvested from the agar using a sterile loop and resuspended in PBS/Tween 80 to approx 1×10^6 cfu/mL. Each organism suspension was diluted in RPMI medium, containing 2% glucose and 0.135 M MOPS buffer (pH 7.0) to 0.5−2×10^4 cfu/mL for Aspergillus spp. and other filamentous fungi and 0.5-2×10^3 cfu/mL for yeast. 80 μL of an organism suspension was added to each well of the plate containing drug dilutions.
This produced MIC plates with a drug range 50-0.05 mg/L and organism inocula of 1-2×10^4 cfu/mL for Aspergillus spp. and other filamentous fungi and 1-2×10^3 cfu/mL for yeasts. All plates were incubated for 24-48 hrs at 35° C. Growth was assessed by monitoring the optical density at 485 nm for each well. The MIC of a compound is the lowest drug concentration that inhibits growth of an organism by >80% compared with a drug free control. MICs are recorded as mg/L. Other growth media can be used for susceptibility testing, and the activity of the described compounds can also be assessed in a medium comprising 1% glucose, 1% ammonium chloride and 0.5% yeast extract (YAG medium). To perform MIC tests in this medium, dilutions of compounds are prepared in microtitre plates as described above. Fungal strains to be tested are grown and harvested in an identical manner to that described above, each organism suspension is then diluted in YAG medium to 0.5-2×10^4 cfu/mL for Aspergillus spp. and other filamentous fungi and 0.5-2×10^3 cfu/mL for yeast. 80 μL of an organism suspension was added to each well of the plate containing drug dilutions. This produced MIC plates with a drug range 50-0.05 mg/L and organism inocula of 1-2×10^4 cfu/mL for Aspergillus spp. and other filamentous fungi and 1-2×10^3 cfu/mL for yeasts. All plates were incubated for 24 hrs at 35° C. Growth was assessed by monitoring the optical density at 485 nm for each well. The MIC of a compound is the lowest drug concentration that inhibits growth of an organism by >70% compared with a drug free control. MICs are recorded as mg/L. In cases where the MIC of an organism is […] mg/L the MIC is repeated using a concentration range of 0.5-0.0005 mg/L. MIC tests in YAG medium have more clear-cut endpoints and have slightly lower MICs than those performed in RPMI medium.
24 hr Fusarium solani MIC Results (RPMI Medium, FS2): […]

Aspergillus flavus = assay: MIC (YAG medium); settings: YAG medium, MIC banded into grades; for MIC: Aspergillus flavus, read-out: MIC A. flavus (grade)
How it was run: (§1)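 MIC in mg/L, defined as >70% growth inhibition relative to drug-free control by optical density at 485 nm. Plates held 24 hrs at 35° C with Aspergillus inocula of 1-2×10^4 cfu/mL in YAG medium (1% glucose, 1% ammonium chloride, 0.5% yeast extract). Compounds tested at 50-0.05 mg/L, repeated at 0.5-0.0005 mg/L where needed.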

[1] = system: Aspergillus fumigatus AF210; assay: MIC (YAG medium); settings: YAG medium, MIC banded into grades, AF210; for MIC: Aspergillus fumigatus, read-out: MIC A. fumigatus 210 (grade)
How it was run: as §1

[2] = system: Aspergillus fumigatus AF293; assay: MIC (YAG medium); settings: YAG medium, MIC banded into grades, AF293; for MIC: Aspergillus fumigatus, read-out: MIC A. fumigatus (grade)
How it was run: as §1

Aspergillus niger = assay: MIC (YAG medium); settings: YAG medium, MIC banded into grades; for MIC: Aspergillus niger, read-out: MIC A. niger (grade)
How it was run: as §1

Aspergillus terreus AT49 = assay: MIC (YAG medium); settings: YAG medium, MIC banded into grades, AT49; for MIC: Aspergillus terreus, read-out: MIC A. terreus 49 (grade)
How it was run: as §1

Aspergillus terreus AT4 = assay: MIC (YAG medium); settings: YAG medium, MIC banded into grades, AT4; for MIC: Aspergillus terreus, read-out: MIC A. terreus (grade)
How it was run: as §1

[3] = system: Aspergillus fumigatus AF210; assay: Checkerboard titration (FIC) of an indolizine derivative with a second antifungal agent, RPMI medium; settings: compound of Example 21 in combination with caspofungin, 48 hrs
Protocol: To determine the combined antifungal effect of indolizine derivatives of formula (I) and the second antifungal agent a checkerboard titration can be carried out. These are relatively simple tests to determine the combined effects of two compound. In the checkerboard titration doubling dilutions of compound A (e.g. an indolizine derivative of formula (I)) are prepared in every row across a microtitre plate and doubling dilutions of compound B (e.g. a second antifungal agent as described above) are prepared in every column down a microtitre plate. The activity of the two compounds in combination can be compared with the activity of each compound alone. In these experiments a narrow range of dilutions was tested for each compound around the MIC.
A stock solution of the compound of Example […] was prepared in DMSO. A stock solution of a second antifungal agent, in this case caspofungin, was 2 mg/ml.
The stock solution of the compound of Example 21 was diluted 1:2000 in water to 2.5 μg/ml. From this stock, aqueous solutions containing the following concentrations of the compound of Example 21 were prepared 0.9, 0.8, 0.7, 0.6, 0.5, 0.4, 0.3, 0.2, 0.1, 0.05, 0.025, 0.0125 μg/ml. […]
To determine the combined effect of the compounds the Fractional inhibitory concentration FIC was determined, where FIC is defined as: […]

Row | SMILES | MIC (Fusarium solani FS2; read-out: MIC) [µg/mL] | MIC (Aspergillus flavus) [µg/mL] | MIC [1] [µg/mL] | MIC [2] [µg/mL] | MIC (Aspergillus niger) [µg/mL] | MIC (Aspergillus terreus AT49) [µg/mL] | MIC (Aspergillus terreus AT4) [µg/mL] | MIC (Fusarium solani FS2) | MIC A. flavus (grade) (Aspergillus flavus) | MIC A. fumigatus 210 (grade) [1] | MIC A. fumigatus (grade) [2] | MIC A. niger (grade) (Aspergillus niger) | MIC A. terreus 49 (grade) (Aspergillus terreus AT49) | MIC A. terreus (grade) (Aspergillus terreus AT4) | FIC (fractional inhibitory concentration) [3]
1 | CC(C)c1cc(NC(=O)C(=O)c2c(-c3ccccc3)cc3ccccn23)ccc1C(=O)OCCn1ccnc1C(C)C [Example 13, 2-Isopropyl-4-[2-oxo-2-(2-phenyl-indolizin-3-yl)-acetylamino]-benzoic acid 2-(2-isopropyl-imidazol-1-yl)-ethyl ester] | 1 to 10 (≈ 1.78 to 17.8 µM) | < 1 | 1 to 10 (≈ 1.78 to 17.8 µM) | < 1 | > 10 | < 1 | 1 to 10 (≈ 1.78 to 17.8 µM) | – | – | – | – | – | – | – | –
2 | CON=C1CCN(c2ccc(NC(=O)C(=O)c3c(-c4ccccc4)cc4ccccn34)cc2)CC1 [Example 2, N-[4-(4-methoxyimino-piperidin-1-yl)-phenyl]-2-oxo-2-(2-phenyl-indolizin-3-yl)-acetamide] | < 1 | < 1 | < 1 | < 1 | < 1 | < 1 | < 1 | – | – | – | – | – | – | – | –
3 | C=C1CCN(c2ccc(NC(=O)C(=O)c3c(-c4ccccc4)cc4ccccn34)cc2)CC1 [Example 3, N-[4-(4-methylene-piperidin-1-yl)-phenyl]-2-oxo-2-(2-phenyl-indolizin-3yl) acetamide] | – | – | – | – | – | – | – | 3 (A grade of 3 represents an MIC of less than 1 mg/L) | 3 (A grade of 3 represents an MIC of less than 1 mg/L) | 3 (A grade of 3 represents an MIC of less than 1 mg/L) | 3 (A grade of 3 represents an MIC of less than 1 mg/L) | 3 (A grade of 3 represents an MIC of less than 1 mg/L) | 3 (A grade of 3 represents an MIC of less than 1 mg/L) | 3 (A grade of 3 represents an MIC of less than 1 mg/L) | –
4 | O=C(Nc1ccc(N2CCC3(CC2)OCCO3)cc1)C(=O)c1c(-c2ccccc2)cc2ccccn12 [Example 23, N-[4-(1,4-dioxa-8-aza-spiro[4.5]dec-8-yl)-phenyl}-2-oxo-2-(2-phenyl-indolizine-3-yl)-acetamide] | < 1 | < 1 | < 1 | < 1 | < 1 | < 1 | < 1 | – | – | – | – | – | – | – | –
5 | Cc1cc(C)nc(N2CCN(c3ccc(NC(=O)C(=O)c4c(-c5ccccc5)cc5ccccn45)cc3)CC2)c1 [Example 21, N-{4-[4-(4,6-Dimethyl-pyridin-2-yl)-piperazin-1-yl]-phenyl}-2-oxo-2-(2-phenyl-indolizin-3-yl)-acetamide] | < 1 | < 1 | < 1 | < 1 | < 1 | < 1 | < 1 | – | – | – | – | – | – | – | 0.66
6 | CC1CN(C2CCN(c3ccc(NC(=O)C(=O)c4c(-c5ccccc5)cc5ccccn45)cc3)CC2)CC(C)O1 (stereo not shown) [Example 24, N-{4-[4-(2,6-Dimethyl-morpholin-4-yl)-piperidin-1-yl]-phenyl}-2-oxo-2-(2-phenyl-indolizin-3-yl)-acetamide] | 1 to 10 (≈ 1.86 to 18.6 µM) | < 1 | < 1 | < 1 | < 1 | < 1 | < 1 | – | – | – | – | – | – | – | –
7 | CN1CCN(c2oc(-c3ccc(NC(=O)C(=O)c4c(-c5ccccc5)cc5ccccn45)cc3)nc2C(=O)C(F)(F)F)CC1 [Example 29, N-{4-[5-(4-Methyl-piperazin-1-yl)-4-(2,2,2-trifluoro-acetyl)-oxazol-2-yl]-phenyl}-2-oxo-2-(2-phenyl-indolizin-3-yl)-acetamide] | – | < 1 | 1 to 10 (≈ 1.66 to 16.6 µM) | < 1 | < 1 | < 1 | < 1 | – | – | – | – | – | – | – | –
